Laboratory results taken from patent publication US20260072027A1, “Peptides And Method” (Queen Mary University of London, priority 2022, published 2026).
Where no end group is shown, it is not given here. [ ]: non-standard residue; d: D form. Dopa = N[C@@H](Cc1ccc(O)c(O)c1)C(=O)O; Cya = N[C@@H](CS(=O)(=O)O)C(=O)O

Columns and labels:
serum IgG autoantibodies = assay: ELISA for autoantibody detection: serum antibody binding to native and oxPTM insulin peptides; parameters: species or system human; settings: for % binders, Healthy controls / Mean ± SEM (absorbance, OD), Healthy controls / % binders, Type 1 diabetes: Study cohort 1; for % binders, Healthy controls / Mean ± SEM (absorbance, OD), Healthy controls / % binders, Type 1 diabetes / Mean ± SEM (absorbance, OD), Type 1 diabetes: in silico modifications; for % binders, Type 1 diabetes: cut-off = mean of healthy controls to Nt-INSP plus 3 SEM; for Mean ± SEM (absorbance, OD), Type 1 diabetes: Study cohort 1 sera
Description: ELISA for autoantibody detection. The ELISA analysis of Nt-INS and oxPTM-INS autoantibodies was performed as previously described [18](detailed in ESM methods, ELISA assay for antibody detection).
Statistical analyses. Statistical analyses were performed using Prism Software 9.0 (GraphPad, San Diego, CA, USA). Cut-off points of positivity (binders) in the antibody ELISA for each peptide were defined by the mean of optical absorbance (O.D) of healthy controls to the corresponding Nt-INSP plus three times the standard error of the mean (SEM). Specificity and sensitivity were evaluated by receiver operating characteristic (ROC) curve analysis. Area under the curve (AUC) is reported as absolute value and was tested for equality according to DeLong et al. Differences in antibody levels and T-cell stimulation indices (SI) between groups were tested by the One way ANOVA or Student's t-tests as appropriate. Correlation analyses were tested by Pearson or Spearman's test, as appropriate. Categorical analyses were performed by Chi-square or McNemar's tests, as appropriate. For each set of experiments, p values were adjusted for multiple comparison using the Holm-Sidak's test. Hierarchical cluster and Principal Component Analysis (PCA) was done using Clustvis software (https://biit.cs.ut.ee/clustvis/) and Prism Software 9.0, respectively.
Antibody reactivity of type 1 diabetes serum against the candidate oxPTM-INSP. Identified peptide candidates were synthesised and exposed to either HOCl or ^●OH to generate oxPTM-INSPs that were first assessed by TOF-MS/ES+TIC to confirm modification (FIG. 17). Antibody response against native INSPs (Nt-INSPs) and oxPTM-INSPs was evaluated by ELISA using sera from Study cohort 1.
ESM Methods ELISA assay for antibody detection. The ELISA analysis of native (Nt-INS) and modified insulin (oxPTM-INS) was performed as previously described. Briefly, the ELISA plate was coated overnight at 4° C. with 100 μl per well of modified or native insulin in 0.05 M carbonate/bicarbonate buffer pH 9.6 at 10 μg/ml. The next day, the plates were washed 3 times with 0.1% Tween PBS, followed by blocking for 2 hours at room temperature with 200 μl per well of 5% BSA in 0.1% Tween PBS. After washing, 100 μl of 1:200-diluted serum samples in 5% BSA-0.1% Tween PBS were added for additional 2 hours incubation. ELISA plates were then washed 3 times with 0.1% Tween PBS followed by probing with anti-human IgG horse radish peroxidase conjugated (HRP, Sigma) at 1:1,000 dilution in 5% BSA-0.1% Tween PBS for another 1.5 hours incubation. The ELISA plates were washed, and 100 μg/ml TMB substrate in 0.1M sodium acetate pH 6.0 plus 2 μl/10 ml of H2O2, were added. Subsequently, the reaction was stopped with 20% v/v sulphuric acid. The optical density (O.D.) was measured at 450 nm using a GENios plate reader and Magellan software (TECAN, Dorset, UK).

CD4+ T-cells (PBMCs) = assay: In vitro peptide stimulation and T-cell proliferation assay, CD4+; format: cell-based, human
From the text: (§1) In vitro peptide stimulation and T-cell proliferation assay. Peripheral blood mononuclear cells (PBMCs) were freshly isolated from type 1 diabetes and healthy individuals using Ficoll-Hypaque density gradient centrifugation. PBMCs were labelled with the fluorescent dye CellTrace Violet (Invitrogen, Thermo Fisher Scientific) and cultured (2×10^5 cells/well) in round-bottom 96-well plates (Falcon, Becton Dickinson) with RPMI-1640 medium (Gibco, Thermo Fisher Scientific) supplemented with 5% autologous plasma in the presence or not of insulin peptides (20 μg/ml); PPD (10 μg/ml) and anti-CD3 (0.1 μg/ml; clone OKT3) were used as positive control. Two scrambled peptides: […] (SEQ ID NO: 17), […] (SEQ ID NO: 18), and the Exendin 9-39 fragment were used as negative controls. After 7 days, PBMCs were stained with PE-Cy7 anti-CD8 (clone RPA-T8, BD Pharmingen) and FITC anti-CD3 (clone UCHT1, BD Pharmingen). Samples were analysed by using a FACSCanto II (BD Bioscience) to evaluate T-cell proliferation measured as CellTrace Violet dilution. Cytofluorimetric analyses were performed using FlowJo Software (FlowJo, LLC). The results were given as stimulation index (SI), calculated as percentage of stimulated T-cell subset proliferation/percentage of unstimulated T-cell subset proliferation. Assay for detection of peptide specific T cells subsets was done as previously described (detailed in ESM methods, Assay for detection of peptide specific T cells)
(§2) T-cell stimulation with oxPTM-INSPs. To evaluate the immune cell response against the oxPTM-INSPs, we performed CD4+ and CD8+ T cells proliferation experiments using freshly isolated PBMCs (Study cohort 2, Table 1). Response was calculated as stimulatory index (SI) over unstimulated T-cells.

[1] = test system: autoantibodies to oxPTM-INS; assay: Competitive displacement ELISA, plate coated with oxidised insulin; format: binding, human; settings: sera pre-incubated with peptide competitor
Description: A competitive displacement assay was performed to map the exact epitope, namely the exact amino acid sequence binding specificities and to test the binding to native peptides versus oxidised insulin peptides. The binding to the peptide was done by direct ELISA on the native or modified peptides or by competition ELISA. Initially native synthetic peptide was oxidised by exposing to 0.05 mM CuCl2; 90 mM H2O2; 10 mM NaOCl. Native and modified peptides were fractionated by AKTA to evaluated changes in molecular profile. AKTA fractions were then tested by ELISA for reactivity (FIGS. 2 and 3). We next perform competition ELISA with the native peptides and peptides exposed to 0.05 mM CuCl2; 90 mM H2O2; 10 mM NaOCl. Serum samples were pre-incubated with either native insulin peptides or oxidised insulin peptides. Finally, based on the amino acid sequence of the identified peptides we predicted the amino acids that would be oxidised by ^●OH and HOCl and designed synthetic peptides that contain the oxidised amino acids in the synthesis. Synthetic peptides were produced by standard commercially available methods, specifically by Peptide Protein Research Ltd. Briefly, peptide synthesis was performed by automated solid phase peptide synthesis (SPPS), which was followed by purification. Each individual amino acid was added to the growing chain according to the sequence. Where specified, dihydroxyphenylalanine was added to replace Tyr or cysteate were added to replace Cys. Similarly, these peptides were tested by competition ELISA. The table below describe the different competition ELISA performed:
Serum samples from children with type 1 diabetes were pre-incubated with the synthetic peptides before they were added to the native insulin or oxidised that were previously coated on the ELISA plate. If the antibodies in the serum sample bind to the peptide they will no longer bind to the insulin or oxidised insulin on the plate-competition ELISA. 1:200 dilutions of serum samples from T1D serum samples were pre-incubated for 2 hr at room temperature with the various peptides as shown in the table above. After incubation, serum/peptide mix was added to the ELISA plate previously coated overnight with either native insulin or oxidised insulin for an additional 2 hr incubation. Plates were then washed in a plate washer three times with PBS 0.05% tween. After washing, 100 ul of anti-human IgG diluted 1:1000 in 1% milk-PBS 0.05% tween were added for additional 1 hour and 30 min incubation. After washing, ELISA was developed by adding 100 ul of TMB (10 mg/ml in DMSO) in 10 ml of 0.1 M sodium acetate plus 2 ul of H2O2. Reaction was stopped by adding 0.5 M H2SO4 (usually 20 min for insulin ELISA).
To assess the binding specificity of serum samples to identified peptides, a competitive ELISA was performed. The ELISA was carried out following the method described above, except that the serum samples were pre-incubated for 2 h with and without 10 μg/ml peptides as competitors, before adding the serum samples to the insulin coated ELISA plate.

CD8+ T-cells (PBMCs) = assay: In vitro peptide stimulation and T-cell proliferation assay, CD8+; format: cell-based, human
From the text: as §1, §2

| Substance | CD4+ T-cell response, subjects with SI > 3 (%) (CD4+ T-cells (PBMCs); Type 1 diabetes (N = 18)) | % binders, Healthy controls (serum IgG autoantibodies) | Mean ± SEM (absorbance, OD), Healthy controls (serum IgG autoantibodies) | % binders, Type 1 diabetes (serum IgG autoantibodies) | Mean ± SEM (absorbance, OD), Type 1 diabetes (serum IgG autoantibodies) | CD4+ T-cell response, subjects with SI > 1 (%) (CD4+ T-cells (PBMCs); Controls (N = 11)) | CD4+ T-cell response, subjects with SI > 3 (%) (CD4+ T-cells (PBMCs); Controls (N = 11)) | CD4+ T-cell response, subjects with SI > 5 (%) (CD4+ T-cells (PBMCs); Controls (N = 11)) | CD4+ T-cell response, subjects with SI > 10 (%) (CD4+ T-cells (PBMCs); Controls (N = 11)) | CD4+ T-cell response, subjects with SI > 1 (%) (CD4+ T-cells (PBMCs); Type 1 diabetes (N = 18)) | CD4+ T-cell response, subjects with SI > 5 (%) (CD4+ T-cells (PBMCs); Type 1 diabetes (N = 18)) | CD4+ T-cell response, subjects with SI > 10 (%) (CD4+ T-cells (PBMCs); Type 1 diabetes (N = 18)) | CD8+ T-cell response, subjects with SI > 1 (%) (CD8+ T-cells (PBMCs); Controls (N = 11)) | CD8+ T-cell response, subjects with SI > 3 (%) (CD8+ T-cells (PBMCs); Controls (N = 11)) | CD8+ T-cell response, subjects with SI > 5 (%) (CD8+ T-cells (PBMCs); Controls (N = 11)) | CD8+ T-cell response, subjects with SI > 10 (%) (CD8+ T-cells (PBMCs); Controls (N = 11)) | CD8+ T-cell response, subjects with SI > 1 (%) (CD8+ T-cells (PBMCs); Type 1 diabetes (N = 18)) | CD8+ T-cell response, subjects with SI > 3 (%) (CD8+ T-cells (PBMCs); Type 1 diabetes (N = 18)) | CD8+ T-cell response, subjects with SI > 5 (%) (CD8+ T-cells (PBMCs); Type 1 diabetes (N = 18)) | CD8+ T-cell response, subjects with SI > 10 (%) (CD8+ T-cells (PBMCs); Type 1 diabetes (N = 18)) | other results |
| --- | --- | --- | --- | --- | --- | --- | --- | --- | --- | --- | --- | --- | --- | --- | --- | --- | --- | --- | --- | --- | --- |
| Nt-INSP-6: native insulin peptide 6; printed as ERGFFYTPKT (SEQ ID NO: 5) and, in Tables 5 and 6, ERGFFYTPKTR (SEQ ID NO: 8) | 27.8% |  |  |  |  |  |  |  |  |  |  |  |  |  |  |  |  |  |  |  | type 1 diabetes binders (IgG autoantibody reactivity) (serum IgG autoantibodies; Study cohort 2, N = 18): none; inhibition of type 1 diabetes serum binding to oxPTM-INS (in words) [1]: not |
| SL-DOPA-QLEN-DOPA-Cysteate-N (SL[Dopa]QLEN[Dopa][Cya]N) [in silico designed oxPTM-INSP-3 derivative] | (5.6%) | 30% | 0.169 ± 0.008 | 57% | 0.256 ± 0.018 | (27.3%) | (0.0%) | (0.0%) | (0.0%) | (66.7%) | (0.0%) | (0.0%) | (18.2%) | (9.10%) | (0.0%) | (0.0%) | (33.3%) | (16.7%) | (5.5%) | (5.6%) |  |
| SL-DOPA-QLENY-Cysteate-N (SL[Dopa]QLENY[Cya]N) [in silico designed oxPTM-INSP-3 derivative] | (16.7%) | 17% | 0.154 ± 0.006 | 54% | 0.228 ± 0.016 | (54.5%) | (18.2%) | (18.2%) | (0.0%) | (50.0%) | (10.5%) | (5.6%) | (36.4%) | (27.3%) | (27.3%) | (18.2%) | (44.4%) | (27.8%) | (16.7%) | (5.6%) |  |
